Measurements: article PMC6096703, “Pharmacokinetic drug interaction and safety after coadministration of clarithromycin, amoxicillin, and ilaprazole: a randomised, open-label, one-way crossover, two parallel sequences study” (European Journal of Clinical Pharmacology, 2018)

Experiments:
[1] = in vivo
Procedure: (§1) This was a randomised, open-label, one-way crossover, two parallel sequences study. A total of 32 subjects were randomised and assigned to one of the two parts. Subjects assigned to part 1 received a single dose of ilaprazole (Noltec Tab., IL-YANG Pharmaceutical Co.) 10 mg in the first period. Then, after a washout period of 10 days, clarithromycin (Klaricid Film Coated Tab., Abbott Korea) 500 mg and amoxicillin (Amoxicillin Cap. 500 mg Chongkundang, Chong Kun Dang Pharmaceutical Co., Korea) 1000 mg were administered twice daily for 6 days in the second period. Ilaprazole 10 mg was coadministered with clarithromycin and amoxicillin on the day 5 of the second period.
(§2) Subjects assigned to part 2 received single doses of both clarithromycin 500 mg and amoxicillin 1000 mg in the first period; after a washout period of 10 days, ilaprazole 10 mg was administered twice daily for 6 days in the second period. Clarithromycin 500 mg and amoxicillin 1000 mg were coadministered with ilaprazole on the day 5 of the second period (Fig. 1).
(§3) Serial blood samples were collected in anti-coagulated EDTA-K2 tubes at 0 (pre-dose), 1, 2, 2.5, 3, 3.5, 4, 4.5, 5, 6, 8, 12, 24, and 48 h after dosing of ilaprazole in part 1. The PK sampling points in part 2 were 0 (pre-dose), 0.5, 0.75, 1, 1.5, 2, 2.5, 3, 4, 6, 8, 12, 24, and 48 h after dosing of clarithromycin and amoxicillin. Blood sampling points were determined considering the time to reach peak concentration (Tmax) and elimination half-life (t1/2) of ilaprazole, clarithromycin, and amoxicillin [9, 10, 20]. Plasma concentrations of ilaprazole, clarithromycin, and amoxicillin were analysed using liquid chromatography-tandem mass spectrometry (LC-MS/MS). Samples were centrifuged for 10 min under 4 °C at 2000×g and stored below − 70 °C until analysis.
(§4) For the analysis of ilaprazole, 100 μL of plasma was added to polypropylene tubes and mixed with 10 μL of the internal standard (omeprazole) solution and 1 mL of acetonitrile. The mixture was vortexed for 1 min and centrifuged for 5 min at 11,337×g. The supernatant (100 μL) was collected and reconstituted with 600 μL of mobile phase. The supernatant (2 μL) was then injected into an LC-MS/MS system. An LC system (Shiseido Nanospace SI-2, Shiseido, Tokyo, Japan) was used with a mobile phase (10 mM ammonium formate/acetonitrile = 50/50 [v/v]) at 40 °C. Chromatographic separation was performed at a flow rate of 0.25 mL/min. The transition of ilaprazole was detected at m/z 367.0 to 184.2 by using an MS/MS system (API4000®, AB SCIEX, Washington DC, USA) in the multiple reaction monitoring (MRM) mode with a positive electrospray ionisation (ESI) source. The calibration curve was linear over the range of 5–1000 ng/mL, and the correlation coefficient (r) was > 0.995.
(§5) For the analysis of clarithromycin, 100 μL of plasma was added to polypropylene tubes and mixed with 10 μL of the internal standard (clarithromycin-N-methyl-^13C, d3) solution and 500 μL of acetonitrile. The mixture was vortexed for 1 min and centrifuged for 5 min at 11,337×g. The supernatant (50 μL) was collected and reconstituted with 1000 μL of 50% acetonitrile. The supernatant (3 μL) was then injected into the LC-MS/MS system. The LC system was used with a mobile phase (10 mM ammonium formate/acetonitrile = 20/80 [v/v]) at 40 °C. Chromatographic separation was performed at a flow rate of 0.2 mL/min. The transition of clarithromycin was detected at m/z 748.4 to 590.4 using an MS/MS system (4000QTRAP, AB SCIEX, Washington DC, USA) in the MRM mode with a positive ESI source. The calibration curve was linear over the range of 10–7000 ng/mL, and the correlation coefficient (r) was > 0.995.
(§6) For the analysis of amoxicillin, 100 μL of plasma was added to polypropylene tubes and mixed with 10 μL of internal standard (amoxicillin-d4) solution and 500 μL of acetonitrile. The mixture was vortexed for 1 min and centrifuged for 5 min at 11,337×g.

[2] = parameters: method as in PMID 16231964; settings: cited from earlier work
[3] = clinical; settings: male, human, in vivo, t1/2
Procedure: as §1, §2, §3, §4, §5, §6

[4] = Pharmacokinetic assessment of plasma concentrations (LC-MS/MS, non-compartmental analysis) after mono/dual and triple therapy; settings: for AUC(0-inf) / AUC(0-t) / Cmax / Vd/F / Tmax / half-life: male, human, plasma; for AUC(0-inf) / AUC(0-t) / Cmax / Vd/F / half-life: oral; for Tmax: po, median (min–max)
Procedure: as §1, §2, §3, §4, §5, §6

[5] = Safety assessment: adverse events and adverse drug reactions; assay type: in vivo, healthy Korean male volunteers; settings: Part I
Procedure: Safety and tolerability were evaluated throughout the study. The assessments included monitoring of all adverse events (AEs) based on physical examinations, vital signs, 12-lead ECG, routine haematology, serum chemistry, and urinalysis. The subjects were instructed to notify the study physicians or nurses of any AEs that occurred during the study. All AEs reported by subjects or detected in the assessments were recorded, and the investigators determined their relationship to the treatment. The severity of the AEs was evaluated based on the Common Terminology Criteria for Adverse Events (CTCAE, version 4.03).

[6] = AUCinf, dual therapy, period 1 of part 2, N = 15, arithmetic mean (SD)
[7] = AUCinf, geometric least square mean, dual therapy, period 1 of part 2, N = 15
[8] = AUCinf, geometric least square mean, triple therapy, period 2 of part 2, N = 15
[9] = AUCinf, triple therapy, period 2 of part 2, N = 15, arithmetic mean (SD)
[10] = AUClast, dual therapy, period 1 of part 2, N = 15, arithmetic mean (SD)
[11] = AUClast, geometric least square mean, dual therapy, period 1 of part 2, N = 15
[12] = AUClast, geometric least square mean, triple therapy, period 2 of part 2, N = 15
[13] = AUClast, triple therapy, period 2 of part 2, N = 15, arithmetic mean (SD)
[14] = dual therapy, period 1 of part 2, N = 15, arithmetic mean (SD)
[15] = geometric least square mean, dual therapy, period 1 of part 2, N = 15
[16] = geometric least square mean, triple therapy, period 2 of part 2, N = 15
[17] = triple therapy, period 2 of part 2, N = 15, arithmetic mean (SD)
[18] = clarithromycin 500 mg + amoxicillin 1000 mg oral single dose (dual therapy, period 1 of part 2), N = 15
[19] = clarithromycin 500 mg + amoxicillin 1000 mg oral with ilaprazole 10 mg (triple therapy, day 5 of period 2, part 2), N = 15
[20] = ilaprazole in triple therapy, period 2 of part 1, N = 13, arithmetic mean (SD)
[21] = 10 mg, ilaprazole monotherapy, period 1 of part 1, N = 13, arithmetic mean (SD)

## CC1(C)S[C@@H]2[C@H](NC(=O)[C@H](N)c3ccc(O)cc3)C(=O)N2[C@H]1C(=O)O [Amoxicillin, amoxicillin]
[1]
  Plasma amoxicillin concentrations at 48 h after study drug administration: not detected
[1]; male, human
  AUCinf GMR (90% CI), triple therapy/dual therapy: 0.99 (0.83–1.17)
  AUClast GMR (90% CI), triple therapy/dual therapy: 0.98 (0.83–1.16)
  t1/2: 1.96 (3.26) h
[2]
  bioavailability: 89–98%
[3]
  half-life: 1.18 h
[4]; [6]
  AUC(0-inf): 28500 ng·h/mL
[4]; [7]
  AUC(0-inf): 27200 ng·h/mL
[4]; [8]
  AUC(0-inf): 26900 ng·h/mL
[4]; [9]
  AUC(0-inf): 27400 ng·h/mL
[4]; [10]
  AUC(0-t): 27900 ng·h/mL
[4]; [11]
  AUC(0-t): 26700 ng·h/mL
[4]; [12]
  AUC(0-t): 26200 ng·h/mL
[4]; [13]
  AUC(0-t): 26700 ng·h/mL
[4]; [14]
  Cmax: 9370 ng/mL
  Vd/F: 64.7 L
[4]; [15]
  Cmax: 9140 ng/mL
[4]; [16]
  Cmax: 7910 ng/mL
[4]; [17]
  Cmax: 8140 ng/mL
  Vd/F: 95.1 L
[4]; [18]
  Tmax: 1.5 h
[4]; [19]
  Tmax: 2 h

## CC[C@H]1OC(=O)[C@H](C)[C@@H](O[C@H]2C[C@@](C)(OC)[C@@H](O)[C@H](C)O2)[C@H](C)[C@@H](O[C@@H]2O[C@H](C)C[C@H](N(C)C)[C@H]2O)[C@](C)(OC)C[C@@H](C)C(=O)[C@H](C)[C@@H](O)[C@]1(C)O [Clarithromycin, clarithromycin]
[4]; [14]
  CL/F: 36.6 (12.7) L/h
  Cmax: 1870 ng/mL
  Vd/F: 247 L
[4]; [6]
  AUC(0-inf): 15000 ng·h/mL
[4]; [7]
  AUC(0-inf): 14400 ng·h/mL
[4]; [8]
  AUC(0-inf): 15700 ng·h/mL
[4]; [9]
  AUC(0-inf): 16900 ng·h/mL
[4]; [10]
  AUC(0-t): 14600 ng·h/mL
[4]; [11]
  AUC(0-t): 14000 ng·h/mL
[4]; [12]
  AUC(0-t): 15300 ng·h/mL
[4]; [13]
  AUC(0-t): 16500 ng·h/mL
[4]; [15]
  Cmax: 1770 ng/mL
[4]; [16]
  Cmax: 1590 ng/mL
[4]; [17]
  Cmax: 1720 ng/mL
  Vd/F: 230 L
  CL/F: 34.4 (15.1) L/h
[4]; t1/2, dual therapy, period 1 of part 2, N = 15, arithmetic mean (SD)
  half-life: 4.84 h
[4]; t1/2, triple therapy, period 2 of part 2, N = 15, arithmetic mean (SD)
  half-life: 4.83 h
[4]; [18]
  Tmax: 2 h
[4]; [19]
  Tmax: 2.5 h

## COc1ccnc(C[S+]([O-])c2nc3cc(-n4cccc4)ccc3[nH]2)c1C (centres unmarked) [Ilaprazole, ilaprazole]
[5]
  Subjects with adverse drug reactions: no drug-related AE
  Subjects with any adverse event: 5 (31.3) number (%) of subjects
[4]; [20]
  CL/F: 3.04 (1.11) L/h
  Cmax: 446 ng/mL
  Vd/F: 20.4 L
[4]; ilaprazole monotherapy, period 1 of part 1, N = 13, arithmetic mean (SD)
  CL/F: 3.28 (1.23) L/h
[4]; 10 mg, AUCinf, geometric least square mean, ilaprazole monotherapy, period 1 of part 1, N = 13
  AUC(0-inf): 3220 ng·h/mL
[4]; 10 mg, AUCinf, ilaprazole monotherapy, period 1 of part 1, N = 13, arithmetic mean (SD)
  AUC(0-inf): 3390 ng·h/mL
[4]; 10 mg, AUClast, geometric least square mean, ilaprazole monotherapy, period 1 of part 1, N = 13
  AUC(0-t): 3140 ng·h/mL
[4]; 10 mg, AUClast, ilaprazole monotherapy, period 1 of part 1, N = 13, arithmetic mean (SD)
  AUC(0-t): 3300 ng·h/mL
[4]; 10 mg, geometric least square mean, ilaprazole monotherapy, period 1 of part 1, N = 13
  Cmax: 447 ng/mL
[4]; [21]
  Cmax: 479 ng/mL
  Vd/F: 19.5 L
[4]; 10 mg, mean AUCinf, ilaprazole monotherapy
  AUC(0-inf): 3390 ng·h/mL
[4]; 10 mg, mean AUClast, ilaprazole monotherapy
  AUC(0-t): 3300 ng·h/mL
[4]; 10 mg, t1/2, ilaprazole monotherapy, period 1 of part 1, N = 13, arithmetic mean (SD)
  half-life: 4.16 h
[4]; AUCinf, geometric least square mean, ilaprazole in triple therapy, period 2 of part 1, N = 13
  AUC(0-inf): 3490 ng·h/mL
[4]; AUCinf, ilaprazole in triple therapy, period 2 of part 1, N = 13, arithmetic mean (SD)
  AUC(0-inf): 3680 ng·h/mL
[4]; AUClast, geometric least square mean, ilaprazole in triple therapy, period 2 of part 1, N = 13
  AUC(0-t): 3350 ng·h/mL
[4]; AUClast, ilaprazole in triple therapy, period 2 of part 1, N = 13, arithmetic mean (SD)
  AUC(0-t): 3540 ng·h/mL
[4]; geometric least square mean, ilaprazole in triple therapy, period 2 of part 1, N = 13
  Cmax: 414 ng/mL
[4]; mean AUCinf, ilaprazole in triple therapy
  AUC(0-inf): 3680 ng·h/mL
[4]; mean AUClast, ilaprazole in triple therapy
  AUC(0-t): 3540 ng·h/mL
[4]; t1/2, ilaprazole in triple therapy, period 2 of part 1, N = 13, arithmetic mean (SD)
  half-life: 4.66 h
[4]; 10 mg, ilaprazole 10 mg oral single dose alone (monotherapy, period 1 of part 1), N = 13
  Tmax: 3.5 h
[4]; ilaprazole 10 mg oral with clarithromycin 500 mg and amoxicillin 1000 mg (triple therapy, day 5 of period 2, part 1), N = 13
  Tmax: 3 h
